Reference: US11377444B2, “Pyridopyrimidine compounds acting as mTORC 1/2 dual inhibitors” (MEDSHINE DISCOVERY INC., priority 2017, dated 2022)

Key:
[1] = target: T1, mTOR kinase (mTORC1 and mTORC2 kinase complex) (Homo sapiens, UniProt P42345); test: In vitro evaluation of mTOR kinase inhibitory activity (DiscoverX ligand-bead competition binding, qPCR readout)
T1 construct: purchased DiscoverX; host or cells: HEK-293
Method: Experimental Embodiment 1: In Vitro Evaluation of mTOR Kinase Inhibitory Activity This experiment was performed by DiscoverX. All materials and methods were obtained from DiscoverX.
Kinase activity analysis.
1. Labeled mTOR kinase was stably expressed in HEK-293 cells.
2. Streptavidin magnetic beads were treated with biotinylated small molecule ligands at room temperature for 30 minutes to produce affinity resin for kinase analysis;
3. Ligand beads were blocked with excess biotin and washed with buffer (1% bovine serum albumin, […]) to remove unbound ligand and non-specifically bound ligand;
4. The assembly of kinase and ligand and affinity beads, and the binding reaction between the compound and the three were performed in buffer (20% blocking buffer, 0.17x phosphate buffer, 0.05% Tween […]);
5. The test compounds were dissolved in dimethyl sulfoxide;
6. All test compounds were dissolved in DMSO, and then directly diluted […]
7. The solution was placed in a 384-well polypropylene plate, wherein the volume of each well was 0.02 mL;
8. The plate was shaked for an hour at room temperature;
9. The plate was washed with buffer (1× PBS, 0.05% Tween 20);
10. The affinity beads were resuspended in buffer (1× PBS, 0.05% Tween […] non-biotin affinity ligand) and incubated at room temperature for 30 minutes;
11. The kinase concentration in the eluate was deteced by qPCR.

[2] = system: human breast cancer MCF-7 cell subcutaneous xenograft tumor; test: In vivo pharmacodynamic study, MCF-7 subcutaneous xenograft tumor; parameters: species or system BALB/c nude mouse; settings: 15 mg/kg
From the text: Experimental Embodiment 4: In Vivo Pharmacodynamic Study on BALB/c Nude Mouse Model of Human Breast Cancer MCF-7 Cell Subcutaneous Xenograft Tumor
Experimental objective: To study the efficacy of the test compounds on human breast cancer MCF-7 cell subcutaneous xenograft tumor in BALB/c nude mouse model.
Experimental animals: Female BALB/c nude mice, 6-8 weeks old, weighing 18-22 grams; supplier: Shanghai Xipuer-Bikai Experimental Animal Co., Ltd.
Human breast cancer MCF-7 cells (ECACC, article number: 86012803) were subjected to in vitro monolayer culture under the conditions of EMEM (EBSS)+2 mM […]+1% Non Essential Amino Acids (NEAA) medium containing 10% fetal bovine serum, 100 U/mL penicillin and 100 μg/mL streptomycin, and 37° C., 5% CO2incubator. Conventional digestion treatment was carried out with trypsin-EDTA twice a week for cell passage. When the cell saturation was 80%-90%, and the quantity reached the requirement, the cells were collected, counted and inoculated.
Estrogen tablets (0.18 mg) were inoculated into the left back of each mouse three days before cell inoculation, 0.2 mL (1×10^7) MCF-7 cells (added with matrigel, volume ratio of 1:1) were subcutaneously inoculated into the right back of each mouse. When the average volume of tumor reached 142 mm^3, the mice were divided into groups and began to be administrated.
The test compounds were prepared into clear solutions of 0.75 mg/mL, 1.5 mg/mL and 3 mg/mL. The vehicles were 5% DMSO+30% polyethylene glycol 300+65% water.
The experimental indexes were used for investigating whether the growth of the tumors had been inhibited, delayed or cured. The diameters of the tumors were measured with vernier calipers twice a week. The calculation formula of the tumor volume was: V=0.5a×b^2, wherein a and b represent the long and short diameters of the tumor respectively.
The antitumor efficacy of the compound was evaluated by TGI (%) or relative tumor proliferation rate T/C (%). TGI (%) reflects the inhibition rate of the tumor growth. Calculation of TGI (%): TGI (%)=[1−(average tumor volume at the end of administration in the treatment group−average tumor volume at the beginning of administration in the treatment group)/(average tumor volume at the end of treatment in the vehicle control group−average tumor volume at the beginning of treatment in the vehicle control group)]×[…].
Relative tumor proliferation rate T/C (%): The calculation formula was as follows: T/C %=TRTV/CRTV at the beginning of the treatment (TRTV: treatment group RTV; CRTV: negative control group RTV). The relative tumor volume (RTV) was calculated according to the results of tumor measurement. The calculation formula was RTV=Vt/V0, wherein V0 is the average tumor volume measured during administration of the groups (i.e. d0), and Vt is the average tumor volume during a certain measurement, the TRTV and CRTV were taken on the same day.
Statistical analysis included the mean and standard error (SEM) of tumor volume at each time point in each group. […] The comparison between two groups was analyzed by T-test, and the comparison between three or more groups was analyzed by one-way ANOVA.

| Compound | Kd [1] | other results |
| --- | --- | --- |
| CNC(=O)c1cccc(-c2ccc3c(N4CCOCC4C)nc(N4CCOC5CC54)nc3n2)c1 (single isomer, unassigned) [Embodiment 18-1] | 3 nM |  |
| CNC(=O)c1cccc(-c2ccc3c(N4CCOCC4C)nc(N4CCOC5CC54)nc3n2)c1 (single isomer, unassigned) [Embodiment 18-2] | 0.5 nM |  |
| CNC(=S)c1cccc(-c2ccc3c(N4CCOC[C@@H]4C)nc(N4CCOC5(CC5)C4)nc3n2)c1 [Embodiment 2] | 0.15 nM |  |
| CONC(=O)c1cccc(-c2ccc3c(N4CCOC[C@@H]4C)nc(N4CCOC5(CC5)C4)nc3n2)c1 [Embodiment 3] | 0.32 nM |  |
| C[C@H]1COCCN1c1nc(N2CCOC3(CC3)C2)nc2nc(-c3cccc(C(=O)NO)c3)ccc12 [Embodiment 4] | 0.22 nM |  |
| CNC(=O)c1cccc(-c2ccc3c(N4CCOC[C@@H]4C)nc(C4CCC5(CC4)OCCO5)nc3n2)c1 [Embodiment 5] | 0.66 nM |  |
| CNC(=O)c1cccc(-c2ccc3c(N4CCOC[C@@H]4C)nc(N4CC5(CCOCC5)C4)nc3n2)c1 [Embodiment 6] | 12 nM |  |
| CNC(=O)c1cccc(-c2ccc3c(N4CCOC[C@@H]4C)nc(N4CCC5(CC4)COC5)nc3n2)c1 [Embodiment 7] | 6.4 nM |  |
| CNC(=O)c1cccc(-c2ccc3c(N4CCOCC4C)nc(N4CCC5(CCOC5)CC4)nc3n2)c1 (stereo not shown) [Embodiment 8] | 5.9 nM |  |
| CNC(=O)c1cccc(-c2ccc3c(N4CCOCC4C)nc(N4CCC5(CC4)CC5)nc3n2)c1 (stereo not shown) [Embodiment 10] | 7.8 nM |  |
| Nc1nc2cc(-c3ccc4c(N5C6CCC5COC6)nc(N5CCOC6(CC6)C5)nc4n3)ccc2o1 [Embodiment 11] | 1.2 nM |  |
| C[C@H]1COCCN1c1nc(N2CCOC3(CC3)C2)nc2nc(-c3ccc4ccc(N)nc4c3)ccc12 [Embodiment 14] | 0.25 nM |  |
| CNC(=O)c1cccc(-c2ccc3c(N4CCOC[C@@H]4C)nc(N4CCOC5(CNC5)C4)nc3n2)c1 [Embodiment 15] | 3.3 nM |  |
| C[C@H]1COCCN1c1nc(N2CCOC3(CC3)C2)nc2nc(-c3ccc4nc(N)ncc4c3)ccc12 [Embodiment 16] | 1.5 nM |  |
| C[C@H]1COCCN1c1nc(N2CCOC3(CC3)C2)nc2nc(-c3cccc(-c4ccn[nH]4)c3)ccc12 [Embodiment 17] | 3.4 nM |  |
| C[C@H]1COCCN1c1nc(N2CCOC3(CC3)C2)nc2nc(-c3cccc(-c4nc[nH]n4)c3)ccc12 [Embodiment 19] | 3 nM |  |
| CNC(=O)c1cccc(-c2ccc3c(N4CCOC[C@@H]4C)nc(N4CCOCC45CC5)nc3n2)c1 [Embodiment 20] | 0.97 nM |  |
| C[C@H]1COCCN1c1nc(N2CCOC3(CC3)C2)nc2nc(-c3cccc(C(=O)NC(C)(C)C)c3)ccc12 [Embodiment 22] | 1.5 nM |  |
| C[C@H]1COCCN1c1nc(N2CCOC3(CC3)C2)nc2nc(-c3ccc4cnc(N)nc4c3)ccc12 [Embodiment 25] | 1.4 nM |  |
| CNC(=O)c1cccc(-c2ccc3c(N4CCOC[C@@H]4C)nc(N4CCOC5(CN(C)C5)C4)nc3n2)c1 [Embodiment 27] | 6.6 nM |  |
| CNC(=O)c1cccc(-c2ccc3c(N4CCOC[C@@H]4C)nc(N4CCOC5(C4)CC(F)(F)C5)nc3n2)c1 [Embodiment 28] | 1.4 nM |  |
| C[C@H]1COCCN1c1nc(N2CCOC3(C2)CC(F)(F)C3)nc2nc(-c3cccc(C(=O)NC4CC4)c3)ccc12 [Embodiment 29] | 2.7 nM |  |
| CNC(=O)c1cccc(-c2ccc3c(N4CCOC[C@@H]4C)nc(N4CCCC5(C4)OCCO5)nc3n2)c1 [Embodiment 31] | 5 nM |  |
| CNC(=O)c1cccc(-c2ccc3c(N4CCOC[C@@H]4C)nc(N4CCOC5(COC5)C4)nc3n2)c1 [Embodiment 40] | 0.78 nM |  |
| CNC(=O)c1cccc(-c2ccc3c(N4CCOC[C@@H]4C)nc(N4CCOC5(CSC5)C4)nc3n2)c1 [Embodiment 41] | 0.94 nM |  |
| CNC(=O)c1cccc(-c2ccc3c(N4CCOC[C@@H]4C)nc(N4CCOC5(C4)C[S+]([O-])C5)nc3n2)c1 (stereo partly shown) [Embodiment 42] | 0.93 nM |  |
| CNC(=O)c1cccc(-c2ccc3c(N4CCOC[C@@H]4C)nc(N4CCOC5(C4)CS(=O)(=O)C5)nc3n2)c1 [Embodiment 43] | 12 nM |  |
| CC1COCCN1c1nc(N2CCOC3(CCCC3)C2)nc2nc(-c3cccc(C(N)=O)c3)ccc12 (stereo not shown) [Embodiment 49] | 0.3 nM | T/C [2]: 121.62%; TGI [2]: −37.89%; RTV (27th day) ([2]; 27th day): 5.07 ± 0.92; Tumor volume (27th day) ([2]; 27th day, mean ± SEM): 759 ± 174 mm^3; Tumor volume (day 0) ([2]; day 0, mean ± SEM): 144 ± 14 mm^3 |

Further lines, with some results ahead:

| Kd [1] | Compound | other results |
| --- | --- | --- |
| 0.5 nM | CNC(=O)c1cccc(-c2ccc3c(N4CCOCC4C)nc(N4CCOC5(CCSC5)C4)nc3n2)c1 (single isomer, unassigned) [Embodiment 45-1] |  |
| 1.7 nM | CNC(=O)c1cccc(-c2ccc3c(N4CCOCC4C)nc(N4CCOC5(CCSC5)C4)nc3n2)c1 (single isomer, unassigned) [Embodiment 45-2] |  |
| 1 nM | CNC(=O)c1cccc(-c2ccc3c(N4CCOCC4C)nc(N4CCOC5(CC[S+]([O-])C5)C4)nc3n2)c1 (single isomer, unassigned) [Embodiment 46-1] |  |
| 4.9 nM | CNC(=O)c1cccc(-c2ccc3c(N4CCOCC4C)nc(N4CCOC5(CC[S+]([O-])C5)C4)nc3n2)c1 (single isomer, unassigned) [Embodiment 46-2] |  |
| 7.9 nM | CNC(=O)c1cccc(-c2ccc3c(N4CCOCC4C)nc(N4CCOC5(CCS(=O)(=O)C5)C4)nc3n2)c1 (single isomer, unassigned) [Embodiment 47-1] |  |
| 7.9 nM | CNC(=O)c1cccc(-c2ccc3c(N4CCOCC4C)nc(N4CCOC5(CCS(=O)(=O)C5)C4)nc3n2)c1 (single isomer, unassigned) [Embodiment 47-2] |  |
| 1.8 nM | CNC(=O)c1cccc(-c2ccc3c(N4CCOCC4C)nc(N4CC5(CCOC5)OCC4C)nc3n2)c1 (single isomer, unassigned) [Embodiment 48-1] |  |
| 1.9 nM | CC1COCCN1c1nc(N2CCOC3(CCOC3)C2)nc2nc(-c3cccc(C(N)=O)c3)ccc12 (single isomer, unassigned) [Embodiment 50-1] |  |
| 1.1 nM | CNC(=O)c1cccc(-c2ccc3c(N4CCOCC4C)nc(N4CCOC5(CNC(=O)C5)C4)nc3n2)c1 (single isomer, unassigned) [Embodiment 53-1] |  |
| 1.8 nM | CNC(=O)c1cccc(-c2ccc3c(N4CCOCC4C)nc(N4CCOC5(CNC(=O)C5)C4)nc3n2)c1 (single isomer, unassigned) [Embodiment 53-2] |  |
